Test results taken from patent US9796711B2, “Substituted pyrazolo[3,4-b]pyridin-6-carboxylic acids and method of use” (AbbVie S.àr.l., priority 2015, dated 2017).

Target: T1, ΔF508-CFTR (Homo sapiens, UniProt P13569, DEL508-508)
T1 construct: host or cells: CFBE41o-, doxycycline-inducible
Test: CFTR cell surface levels using HRP-tagged ΔF508-CFTR expressing CFBE cells, in the presence of a co-corrector
Format: cell-based
Conditions: HRP-tagged ΔF508-CFTR expressing CFBE cells, in the presence of 3 μM co-corrector; for EC50: read-out: EC50
Text: Measuring CFTR Cell Surface Levels Using HRP-Tagged AF508-CFTR Expressing CFBE Cells
The HRP-tagged AF508-CFTR cell assay measures the expression of CFTR-ΔF508 at the plasma membrane. CFTR-ΔF508 has a folding defect leading to absence of protein at the plasma membrane. This assay is used to evaluate the capacity of compounds to increase the expression of CFTR-ΔF508 at the plasma membrane. The CFTR-ΔF508 is tagged with HRP (horse radish peroxidase enzyme) within the ECL4 (Extracellular loop 4) of CFTR (Phuan, P.-W. et al. Synergy-based small-molecule screen using a human lung epithelial cell line yields AF508-CFTR correctors that augment VX-809 maximal efficacy. Mol. Pharmacol. 86, 42-51 (2014)). When HRP-tagged AF508-CFTR is present at the plasma membrane, the HRP enzyme activity can be measured. The amount of CFTR-ΔF508 that can be rescued to the plasma membrane is correlated with the amount of functional enzyme that can be measured.
There are several ways to measure the capacity of compounds to rescue CFTR-ΔF508 to the plasma membrane; either compounds are evaluated on their own and the impact on plasma membrane levels is measured or compounds are evaluated in combination with a co-corrector, i.e. a compound that rescues CFTR-ΔF508 to the plasma membrane but rescue can be enhanced by addition of compounds due to a complementary mode of action.
Activity of Compounds in Combination with Co-Corrector:
For this purpose doxycycline-inducible AF508-CFTR-HRP expressing CFBE4lo-cells (obtained from Gergely Lukacs, McGill University) were maintained in MEM (Minimum Essential Medium, Gibco; 31095) supplemented with 10% fetal bovine serum (Hyclone; SV30160.03) under puromycin (3 μg/mL) and G418 selection (0.2 mg/mL). For compound testing, cells were seeded at 4000 cells/well in white 384-well plates (Greiner; 781080) in 50 μL of medium containing 0.5 μg/mL doxycycline and incubated for 68 hours at 37° C., 5% CO2. On day four, 10 μL of test compounds diluted in PBS (phosphate buffered saline) were added to the plates at a final DMSO concentration of 0.1%. In order to measure compound synergy with a co-corrector, 3 μM co-corrector (3-[(2R,4R)-4-({[1-(2,2-difluoro-1,3-benzodioxol-5-yl)cyclopropyl]carbonyl}amino)-7-methoxy-3,4-dihydro-2H-chromen-2-yl]benzoic acid) was added along with test compounds. All compound plates contained negative controls (DMSO) and positive controls (3 μM co-corrector). Cell plates were incubated at 33° C., 5% CO2 for 20 hours. On day five, the cells were washed five times with phosphate-buffered saline, and HRP activity was assayed by the addition of 50 μL/well of HRP substrate (SuperSignal™ West Pico Chemiluminescent Substrate, Thermo Scientific; 34080). After incubation for 15 minutes in the dark, the chemiluminescence was measured using a plate reader (EnVision®, Perkin Elmer). Raw data were normalized to percentage activity values using the equation: 100×(Sample−Negative control)/(Positive control−Negative Control).

T1 sequence (P13569 with tags, fused parts or gaps DEL508-508): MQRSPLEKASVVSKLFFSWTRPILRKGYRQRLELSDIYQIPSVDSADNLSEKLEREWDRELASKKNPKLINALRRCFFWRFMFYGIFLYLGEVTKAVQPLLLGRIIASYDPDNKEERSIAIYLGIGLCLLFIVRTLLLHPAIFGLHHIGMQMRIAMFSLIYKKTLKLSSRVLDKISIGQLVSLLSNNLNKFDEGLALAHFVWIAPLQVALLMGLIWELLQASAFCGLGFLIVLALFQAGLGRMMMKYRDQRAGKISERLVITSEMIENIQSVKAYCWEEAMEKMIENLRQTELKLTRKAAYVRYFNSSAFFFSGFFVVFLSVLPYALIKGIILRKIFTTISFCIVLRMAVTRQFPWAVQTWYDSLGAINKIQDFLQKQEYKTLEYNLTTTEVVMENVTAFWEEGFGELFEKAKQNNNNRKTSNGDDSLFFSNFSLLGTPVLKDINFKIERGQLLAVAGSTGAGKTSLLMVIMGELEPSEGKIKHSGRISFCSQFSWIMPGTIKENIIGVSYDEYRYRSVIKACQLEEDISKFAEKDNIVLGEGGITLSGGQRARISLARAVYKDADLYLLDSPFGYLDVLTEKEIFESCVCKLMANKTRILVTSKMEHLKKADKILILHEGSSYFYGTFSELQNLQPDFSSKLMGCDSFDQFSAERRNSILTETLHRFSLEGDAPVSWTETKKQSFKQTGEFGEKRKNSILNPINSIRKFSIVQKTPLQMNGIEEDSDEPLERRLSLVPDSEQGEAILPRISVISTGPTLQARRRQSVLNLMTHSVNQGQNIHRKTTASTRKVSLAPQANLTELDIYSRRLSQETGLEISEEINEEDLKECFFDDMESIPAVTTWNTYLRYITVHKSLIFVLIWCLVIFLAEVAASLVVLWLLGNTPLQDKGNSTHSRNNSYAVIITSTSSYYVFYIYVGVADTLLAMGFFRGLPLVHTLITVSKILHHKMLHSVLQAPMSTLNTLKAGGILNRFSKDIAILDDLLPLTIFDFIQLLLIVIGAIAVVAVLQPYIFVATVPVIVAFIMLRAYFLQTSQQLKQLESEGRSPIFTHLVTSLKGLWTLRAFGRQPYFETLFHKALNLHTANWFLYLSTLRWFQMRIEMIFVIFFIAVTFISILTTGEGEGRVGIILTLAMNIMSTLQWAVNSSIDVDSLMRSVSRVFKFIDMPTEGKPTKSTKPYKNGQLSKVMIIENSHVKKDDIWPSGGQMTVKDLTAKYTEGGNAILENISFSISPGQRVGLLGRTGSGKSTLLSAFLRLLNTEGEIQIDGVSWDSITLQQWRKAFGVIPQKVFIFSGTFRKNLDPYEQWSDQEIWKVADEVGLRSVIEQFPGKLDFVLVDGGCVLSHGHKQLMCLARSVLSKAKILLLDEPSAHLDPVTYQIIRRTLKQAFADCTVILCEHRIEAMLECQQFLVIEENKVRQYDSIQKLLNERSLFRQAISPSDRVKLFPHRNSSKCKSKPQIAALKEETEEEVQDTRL

Compound | % Activation | EC50
O=C(O)c1cc(OC2CCC2)c2c(C3CCC3)nn(-c3ccccc3)c2n1 [compound 585, 3-cyclobutyl-4-(cyclobutyloxy)-1-phenyl-1H-pyrazolo[3,4-b]pyridine-6-carboxylic acid] | 245.3% | 2490 nM
COCCOCCOc1cc(C(=O)O)nc2c1c(C1CCC1)nn2-c1ccccc1 [compound 586, 3-cyclobutyl-4-[2-(2-methoxyethoxy)ethoxy]-1-phenyl-1H-pyrazolo[3,4-b]pyridine-6-carboxylic acid] | 322.2% | 2000 nM
CN1CCCC(CN(C)c2cc(C(=O)O)nc3c2c(C2CCC2)nn3-c2ccccc2)C1 (centres unmarked) [compound 593, 3-cyclobutyl-4-{methyl [(1-methylpiperidin-3-yl)methyl]amino}-1-phenyl-1H-pyrazolo[3,4-b]pyridine-6-carboxylic acid] | 313.3% | 1170 nM
O=C(O)c1cc(OC2CCCC2)c2c(C3CCC3)nn(-c3ccccc3)c2n1 [compound 597, 3-cyclobutyl-4-(cyclopentyloxy)-1-phenyl-1H-pyrazolo[3,4-b]pyridine-6-carboxylic acid] | 342.5% | 230 nM
O=C(O)c1cc(O[C@H]2C[C@@H](N3CCC3)C2)c2c(C3CCC3)nn(-c3ccccc3)c2n1 [compound 598, 4-{[cis-3-(azetidin-1-yl)cyclobutyl]oxy}-3-cyclobutyl-1-phenyl-1H-pyrazolo[3,4-b]pyridine-6-carboxylic acid] | 274.4% | 3330 nM
O=C(O)c1cc(OCC2CC(F)(F)C2)c2c(C3CCC3)nn(-c3ccccc3)c2n1 [compound 600, 3-cyclobutyl-4-[(3,3-difluorocyclobutyl)methoxy]-1-phenyl-1H-pyrazolo[3,4-b]pyridine-6-carboxylic acid] | 334.3% | 383 nM
CN1CC(Oc2cc(C(=O)O)nc3c2c(C2CCC2)nn3-c2ccccc2)C1 [compound 601, 3-cyclobutyl-4-[(1-methylazetidin-3-yl)oxy]-1-phenyl-1H-pyrazolo[3,4-b]pyridine-6-carboxylic acid] | 173.6% | 2480 nM
CC(C)c1nn(-c2ccc(F)cc2)c2nc(C(=O)O)cc(OCCCN(C)C)c12 [compound 606, 4-[3-(dimethylamino)propoxy]-1-(4-fluorophenyl)-3-(propan-2-yl)-1H-pyrazolo[3,4-b]pyridine-6-carboxylic acid] | 199.7% | 1770 nM
CC(C)c1nn(-c2ccc(F)cc2)c2nc(C(=O)O)cc(OCCCN3CCOCC3)c12 [compound 607, 1-(4-fluorophenyl)-4-[3-(morpholin-4-yl)propoxy]-3-(propan-2-yl)-1H-pyrazolo[3,4-b]pyridine-6-carboxylic acid] | 305.5% | 1980 nM
CC(C)c1nn(-c2ccc(F)cc2)c2nc(C(=O)O)cc(OCC3(C)COC3)c12 [compound 608, 1-(4-fluorophenyl)-4-[(3-methyloxetan-3-yl)methoxy]-3-(propan-2-yl)-1H-pyrazolo[3,4-b]pyridine-6-carboxylic acid] | 338.1% | 683 nM
CC(C)c1nn(-c2ccc(F)cc2)c2nc(C(=O)O)cc(OCC3CCCO3)c12 (centres unmarked) [compound 609, 1-(4-fluorophenyl)-4-[(oxolan-2-yl)methoxy]-3-(propan-2-yl)-1H-pyrazolo[3,4-b]pyridine-6-carboxylic acid] | 336.4% | 1040 nM
CC(C)c1nn(-c2ccc(F)cc2)c2nc(C(=O)O)cc(OCCCN3CCCCC3)c12 [compound 653, 1-(4-fluorophenyl)-4-[3-(piperidin-1-yl)propoxy]-3-(propan-2-yl)-1H-pyrazolo[3,4-b]pyridine-6-carboxylic acid] | 260.3% | 3330 nM
O=C(O)c1cc(OCC2CCOCC2)c2c(C3CCC3)nn(-c3ccc(F)cc3)c2n1 [compound 658, 3-cyclobutyl-1-(4-fluorophenyl)-4-[(oxan-4-yl)methoxy]-1H-pyrazolo[3,4-b]pyridine-6-carboxylic acid] | 345.9% | 455 nM
